For twelve molecules, IC50 results are on record in patent US12410179B2, “Modulators of TNF alpha activity and uses thereof” (RayThera, Inc., priority 2023, dated 2025).

The test has as its target TNFα (Homo sapiens, UniProt P01375). In words: HEK-Blue hTNFα reporter assay. It counts as cell-based. Also on record: purchased R&D biosystem (R&D Systems) 210-TA-020/CF. The settings on record: HEK-Blue hTNFα reporter cells, SEAP readout; read-out: IC50 Range. A digest of the protocol:
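IC50 from 4-parameter regression of % inhibition, with OD620 of secreted SEAP (QUANTI-Blue, 1 h) referenced to cells with and without hTNFα. HEK-Blue TNFα reporter cells were exposed 24 h to compound premixed 1 h with hTNFα ([…]).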
A general note: A reporter such as luciferase makes a cellular process visible.

Sequence of TNFα (P01375 77-233 limits assumed): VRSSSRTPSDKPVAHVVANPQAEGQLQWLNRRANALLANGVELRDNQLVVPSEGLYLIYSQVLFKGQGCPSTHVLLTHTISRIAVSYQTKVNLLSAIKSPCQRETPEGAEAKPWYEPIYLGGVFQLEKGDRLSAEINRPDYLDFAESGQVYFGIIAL

Turning to `[2H]C([2H])([2H])N1C(=O)c2cccc(C#N)c2[C@H]2C[C@@H]1c1nn3cc(F)c(-c4cnc([C@]5(N)C[C@@](C)(C#N)C5)nc4)cc3c12` [Example 312], the IC50 was less than 25 nM. The value for `[2H]C([2H])([2H])N1C(=O)c2cccc(C3CC3)c2[C@H]2C[C@@H]1c1nn3ccc(-c4cnc(C5(N)CCC5)nc4)cc3c12` [Example 313] was less than 25 nM.

With `CC(=O)c1cccc2c1[C@H]1C[C@H](c3nn4ccc(-c5cnc(C6(N)CCC6)nc5)cc4c31)N(C)C2=O` [Example 314, (7R,14R)-1-acetyl-12-(2-(1-aminocyclobutyl)pyrimidin-5-yl)-6-methyl-6,7-dihydro-7,14-methanobenzo[c]pyrido[1′,2′:1,5]pyrazolo[4,3-f]azocin-5 (14H)-one], the IC50 was less than 25 nM. Consider `Cn1ccc(N2CC=C(c3ccn4nc5c(c4c3)[C@@H]3C[C@H]5NC(=O)c4cccc(OC(F)F)c43)CC2)n1` [Example 315, (7R,14S)-1-(difluoromethoxy)-12-(1-(1-methyl-1H-pyrazol-3-yl)-1,2,3,6-tetrahydropyridin-4-yl)-6,7-dihydro-7,14-methanobenzo[c]pyrido[1′,2′:1,5]pyrazolo[4,3-f]azocin-5 (14H)-one], for which the IC50 was in the range of 25 to 100 nM.

In the case of `CN1C(=O)c2cccc(OC(F)F)c2[C@H]2C[C@@H]1c1nn3ccc([C@H]4CC[C@@H](OC[C@@H](O)CO)CC4)cc3c12` [Example 316, (7R,14S)-1-(difluoromethoxy)-12-((1R,4R)-4-((S)-2,3-dihydroxypropoxy)cyclohexyl)-6-methyl-6,7-dihydro-7,14-methanobenzo[c]pyrido[1′,2′:1,5]pyrazolo[4,3-f]azocin-5 (14H)-one], the half-maximal inhibitory concentration (IC50) is less than 25 nM. On to `CN1C(=O)c2cccc(OC(F)F)c2[C@H]2C[C@@H]1c1nn3ccc([C@H]4CC[C@@H](OC[C@H](O)CO)CC4)cc3c12` [Example 317, (7R,14S)-1-(difluoromethoxy)-12-((1S,4R)-4-((R)-2,3-dihydroxypropoxy)cyclohexyl)-6-methyl-6,7-dihydro-7,14-methanobenzo[c]pyrido[1′,2′:1,5]pyrazolo[4,3-f]azocin-5 (14H)-one], for which the IC50 was less than 25 nM. The value for `CN1C(=O)c2ccnc(OC(F)F)c2[C@H]2C[C@@H]1c1nn3ccc(-c4cnc([C@]5(O)C[C@@](C)(O)C5)nc4)cc3c12` [Example 320, (7R,14S)-1-(difluoromethoxy)-12-(2-((1s,3R)-1,3-dihydroxy-3-methylcyclobutyl)pyrimidin-5-yl)-6-methyl-6,7-dihydro-7,14-methanopyrido[4,3-c]pyrido[1′,2′:1,5]pyrazolo[4,3-f]azocin-5 (14H)-one] was less than 25 nM; that for `CN1C(=O)c2ccc(OC(F)F)nc2[C@H]2C[C@@H]1c1nn3ccc(-c4cnc([C@]5(O)C[C@@](C)(O)C5)nc4)cc3c12` [Example 321, 2-(difluoromethoxy)-12-(2-((1s, 3s)-1,3-dihydroxy-3-methylcyclobutyl)pyrimidin-5-yl)-6-methyl-6,7-dihydro-7,14-methanopyrido[3,2-c]pyrido[1′,2′:1,5]pyrazolo[4,3-f]azocin-5 (14H)-one] was 25 to 100 nM; that for `CN1C(=O)c2c(F)ccc(OC(F)F)c2[C@H]2C[C@@H]1c1nn3ccc(-c4cnc(C5(N)CCC5)nc4)cc3c12` [Example 322, (7R,14S)-12-(2-(1-aminocyclobutyl)pyrimidin-5-yl)-1-(difluoromethoxy)-4-fluoro-6-methyl-6,7-dihydro-7,14-methanobenzo[c]pyrido[1′,2′:1,5]pyrazolo[4,3-f]azocin-5 (14H)-one] was 25 to 100 nM. With `CN1C(=O)c2cccc(OC(F)F)c2[C@H]2C[C@@H]1c1nn3ccc(-c4cnc(C(C)(C)N)nc4)cc3c12` [Example 324] the figure was less than 25 nM; with `[2H]C([2H])([2H])N1C(=O)c2cccc(OC(F)F)c2[C@H]2C[C@@H]1c1nn3ccc(-c4cnc(C(C)(C)N)c(F)c4)cc3c12` [Example 325], less than 25 nM.

Consider `[2H]C([2H])([2H])N1C(=O)c2cccc(OC(F)F)c2[C@H]2C[C@@H]1c1nn3ccc(-c4cnc(C(C)(C)N)c(F)c4)nc3c12` [Example 326], for which the IC50 was less than 25 nM.

The term IC50 denotes the concentration needed to halve the response being measured.
